Molecules are shown by their SMILES.

We go through 33 compounds from patent publication US20170355708A1, “POTASSIUM CHANNEL MODULATORS” (Cadent Therapeutics, Inc., priority 2016, published 2017).

The target of the experiment is T1, hSK2 channels (Homo sapiens, UniProt P0DP23+Q9H2S1).
T1 construct: expressed in transfected cells; host or cells: HEK293
The experiment is described as follows: Whole-cell patch-clamp recording of SK2 channel current (SC100). Type of experiment: cell-based. The conditions noted are these: Stimulating Concentration required for increasing the baseline current by 100%; HEK293 cells expressing hSK2; Table 3. As for the experimental part:
The biological activity of certain compounds were determined as follows. The ionic current through small-conductance Ca^2+-activated K^+ channels (SK channels, subtype 2) is recorded using the whole-cell configuration of the patch-clamp technique in a classic patch-clamp set-up using HEK293 tissue culture cells expressing hSK2 channels as described in Kasumu et. al., Chemistry & Biology 19, 1340-1353, Oct. 26, 2012.
The SC100 value determined is defined as the Stimulating Concentration required for increasing the baseline current by 100%.
For orientation: The patch-clamp technique gives a direct electrical read-out from membranes.

On to `Cc1cc(C)n(-c2nc(Nc3ccc(F)c(F)c3)cc(NC(C)C(N)=O)n2)n1` (stereo not drawn) [Compound 126, 2-((6-((3,4-difluorophenyl)amino)-2-(3,5-dimethyl-1H-pyrazol-1-yl)pyrimidin-4-yl)amino)propanamide], for which the “SC100 uM” value is recorded as “++ (++ means 200 nM-1000 nM)”.
Consider `Cc1cc(C)n(-c2nc(Nc3ccc(F)c(F)c3)cc(N3CCOC(C(N)=O)C3)n2)n1` (stereo not drawn) [Compound 127, 4-(6-((3,4-difluorophenyl)amino)-2-(3,5-dimethyl-1H-pyrazol-1-yl)pyrimidin-4-yl)morpholine-2-carboxamide], for which the “SC100 uM” value is “+ (+ means >1 uM)”.
For the compound `Cc1cc(C)n(-c2nc(Nc3ccc(Cl)cc3)nc3c2ncn3CC#N)n1` [Compound 130, 2-(2-((4-chlorophenyl)amino)-6-(3,5-dimethyl-1H-pyrazol-1-yl)-9H-purin-9-yl)acetonitrile], the “SC100 uM” value is “++ (++ means 200 nM-1000 nM)”.
For the compound `Cc1cc(C)n(-c2nc(Nc3ccc(Cl)cc3)nc3c2ncn3CCN)n1` [Compound 133, 9-(2-aminoethyl)-N-(4-chlorophenyl)-6-(3,5-dimethyl-1H-pyrazol-1-yl)-9H-purin-2-amine], the “SC100 uM” value is “+ (+ means >1 uM)”.
Consider `Cc1cc(C)n(-c2nc(Nc3ccc(F)c(F)c3)cc(NC3C4CN(Cc5ccccc5)CC43)n2)n1` (stereo not drawn) [Compound 134, N4-(3-benzyl-3-azabicyclo[3.1.0]hexan-6-yl)-N6-(3,4-difluorophenyl)-2-(3,5-dimethyl-1H-pyrazol-1-yl)pyrimidine-4,6-diamine], for which the “SC100 uM” value is listed as “++ (++ means 200 nM-1000 nM)”.
For `Cc1cc(C)n(-c2nc(Nc3ccc(Cl)cc3)nc3c2ncn3CCO)n1` [Compound 135, 2-(2-((4-chlorophenyl)amino)-6-(3,5-dimethyl-1H-pyrazol-1-yl)-9H-purin-9-yl)ethan-1-ol], the “SC100 uM” value is listed as “++ (++ means 200 nM-1000 nM)”.
With `Cc1cc(Nc2ccc(Cl)c(C(F)(F)F)c2)nc(-n2ccc(C)n2)n1` [Compound 136, N-(4-chloro-3-(trifluoromethyl)phenyl)-6-methyl-2-(3-methyl-1H-pyrazol-1-yl)pyrimidin-4-amine], the “SC100 uM” value is “+++ (+++ means <200 nM)”.
For the compound `Cc1cc(Nc2ccc(F)cc2)nc(-n2ccc(CO)n2)n1` [Compound 137, (1-(4-((4-fluorophenyl)amino)-6-methylpyrimidin-2-yl)-1H-pyrazol-3-yl)methanol], the “SC100 uM” value was “+ (+ means >1 uM)”.
With `Cc1cc(Nc2ccc(F)cc2)nc(-n2ccc(C(C)(C)O)n2)n1` [Compound 138, 2-(1-(4-((4-fluorophenyl)amino)-6-methylpyrimidin-2-yl)-1H-pyrazol-3-yl)propan-2-ol], the “SC100 uM” value is “+ (+ means >1 uM)”.
For the compound `Cc1cc(Nc2ccc(F)cc2)nc(-n2ccc(C(C)O)n2)n1` (stereo not drawn) [Compound 140, 1-(1-(4-((4-fluorophenyl)amino)-6-methylpyrimidin-2-yl)-1H-pyrazol-3-yl)ethan-1-ol], the “SC100 uM” value is reported as “+ (+ means >1 uM)”.
Consider `Cc1cc(Nc2ccc(F)cc2)nc(-n2ccc(CF)n2)n1` [Compound 141, 2-(3-(fluoromethyl)-1H-pyrazol-1-yl)-N-(4-fluorophenyl)-6-methylpyrimidin-4-amine], for which the “SC100 uM” value is given as “++ (++ means 200 nM-1000 nM)”.
For the compound `Cc1cc(Nc2ccc(Cl)cc2)nc(-n2ccc(C(C)(C)O)n2)n1` [Compound 142, 2-(1-(4-((4-chlorophenyl)amino)-6-methylpyrimidin-2-yl)-1H-pyrazol-3-yl)propan-2-ol], the “SC100 uM” value is reported as “++ (++ means 200 nM-1000 nM)”.
As for `N#Cc1ccn(-c2nc(Nc3ccc(Cl)cc3)cc(N3CC4(COC4)C3)n2)n1` [Compound 143, 1-(4-((4-chlorophenyl)amino)-6-(2-oxa-6-azaspiro[3.3]heptan-6-yl)pyrimidin-2-yl)-1h-pyrazole-3-carbonitrile], the “SC100 uM” value is on record as “++ (++ means 200 nM-1000 nM)”.
Turning to `Cc1cc(C)n(-c2cc3ccn(C)c3c(Nc3ccc(Cl)cc3)n2)n1` [Compound 144, N-(4-chlorophenyl)-5-(3,5-dimethyl-1H-pyrazol-1-yl)-1-methyl-1H-pyrrolo [2,3-c]pyridin-7-amine], the “SC100 uM” value is reported as “+ (+ means >1 uM)”.
The same measure for `Cc1cc(Nc2ccc(Cl)cc2)nc(-n2ccc(C(C)(C)O)n2)c1` [Compound 145, 2-(1-(6-((4-chlorophenyl)amino)-4-methylpyridin-2-yl)-1H-pyrazol-3-yl)propan-2-ol]: “++ (++ means 200 nM-1000 nM)”; for `CC(O)c1ccn(-c2nc(Nc3ccc(F)cc3)cc(N3CCOCC3)n2)n1` (stereo not drawn) [Compound 146, 1-(1-(4-((4-fluorophenyl)amino)-6-morpholinopyrimidin-2-yl)-1H-pyrazol-3-yl)ethan-1-ol]: “+ (+ means >1 uM)”.
As for `CC(C)(O)c1ccn(-c2nc(Nc3ccc(Cl)cc3)cc(N3CC4(COC4)C3)n2)n1` [Compound 147, 2-(1-(4-((4-chlorophenyl)amino)-6-(2-oxa-6-azaspiro [3.3]heptan-6-yl)pyrimidin-2-yl)-1H-pyrazol-3-yl)propan-2-ol], the “SC100 uM” value is reported as “++ (++ means 200 nM-1000 nM)”.
On to `CC(C)(O)c1ccn(-c2nc(Nc3ccc(F)cc3)cc(N3CCOCC3)n2)n1` [Compound 148, 2-(1-(4-((4-fluorophenyl)amino)-6-morpholinopyrimidin-2-yl)-1H-pyrazol-3-yl)propan-2-ol], for which the “SC100 uM” value is “+ (+ means >1 uM)”.
For the compound `OCc1ccn(-c2nc(Nc3ccc(Cl)cc3)cc(N3CCOCC3)n2)n1` [Compound 149, (1-(4-((4-chlorophenyl)amino)-6-morpholinopyrimidin-2-yl)-1H-pyrazol-3-yl)methanol], the “SC100 uM” value is “++ (++ means 200 nM-1000 nM)”.
Turning to `CC(O)c1ccn(-c2nc(Nc3ccc(Cl)cc3)cc(N3CC4(COC4)C3)n2)n1` (stereo not drawn) [Compound 150, 1-(1-(4-((4-chlorophenyl)amino)-6-(2-oxa-6-azaspiro[3.3]heptan-6-yl)pyrimidin-2-yl)-1H-pyrazol-3-yl)ethan-1-ol], the “SC100 uM” value is given as “++ (++ means 200 nM-1000 nM)”.
Consider `FCc1ccn(-c2nc(Nc3ccc(Cl)cc3)cc(N3CCOCC3)n2)n1` [Compound 151, N-(4-chlorophenyl)-2-(3-(fluoromethyl)-1H-pyrazol-1-yl)-6-morpholinopyrimidin-4-amine], for which the “SC100 uM” value is recorded as “++ (++ means 200 nM-1000 nM)”.
As to `CC(F)c1ccn(-c2nc(Nc3ccc(Cl)cc3)cc(N3CC4(COC4)C3)n2)n1` (stereo not drawn) [Compound 152, N-(4-chlorophenyl)-2-(3-(1-fluoroethyl)-1H-pyrazol-1-yl)-6-(2-oxa-6-azaspiro[3.3]heptan-6-yl)pyrimidin-4-amine], the “SC100 uM” value is on record as “+++ (+++ means <200 nM)”.
Take `CC(O)c1ccn(-c2nc(Nc3ccc(F)cc3)cc(N3CC4(COC4)C3)n2)n1` (stereo not drawn) [Compound 153, 1-(1-(4-((4-fluorophenyl)amino)-6-(2-oxa-6-azaspiro[3.3]heptan-6-yl)pyrimidin-2-yl)-1H-pyrazol-3-yl)ethan-1-ol]: the “SC100 uM” value is “+ (+ means >1 uM)”.
The same measure for `FC(F)c1ccn(-c2nc(Nc3ccc(Cl)cc3)cc(N3CCOCC3)n2)n1` [Compound 154, N-(4-chlorophenyl)-2-(3-(difluoromethyl)-1H-pyrazol-1-yl)-6-morpholinopyrimidin-4-amine]: “++ (++ means 200 nM-1000 nM)”.
In the case of `CC(C)(O)c1ccn(-c2nc(Nc3ccc(F)cc3)cc(N3CC4(COC4)C3)n2)n1` [Compound 155, 2-(1-(4-((4-fluorophenyl)amino)-6-(2-oxa-6-azaspiro[3.3]heptan-6-yl)pyrimidin-2-yl)-1H-pyrazol-3-yl)propan-2-ol] it was “+ (+ means >1 uM)”; in that of `OCc1ccn(-c2nc(Nc3ccc(F)cc3)cc(N3CCOCC3)n2)n1` [Compound 156, (1-(4-((4-fluorophenyl)amino)-6-morpholinopyrimidin-2-yl)-1H-pyrazol-3-yl)methanol], “+ (+ means >1 uM)”.
With `FCc1ccn(-c2nc(Nc3ccc(F)cc3)cc(N3CCOCC3)n2)n1` [Compound 157, 2-(3-(fluoromethyl)-1H-pyrazol-1-yl)-N-(4-fluorophenyl)-6-morpholinopyrimidin-4-amine], the “SC100 uM” value is recorded as “++ (++ means 200 nM-1000 nM)”.
On to `Fc1ccc(Nc2cc(N3CCOCC3)nc(-n3ccc(C(F)F)n3)n2)cc1` [Compound 158, 2-(3-(difluoromethyl)-1H-pyrazol-1-yl)-N-(4-fluorophenyl)-6-morpholinopyrimidin-4-amine], for which the “SC100 uM” value is recorded as “+++ (+++ means <200 nM)”.
With `CC(=O)NCc1cc(Nc2ccc(F)cc2)nc(-n2ccc(CF)n2)c1` [Compound 159, N-((2-(3-(fluoromethyl)-1H-pyrazol-1-yl)-6-((4-fluorophenyl)amino)pyridin-4-yl)methyl)acetamide], the “SC100 uM” value is reported as “+++ (+++ means <200 nM)”.
`CC(=O)NCc1cc(Nc2ccc(F)cc2)nc(-n2ccc(C(F)F)n2)c1` [Compound 160, N-((2-(3-(difluoromethyl)-1H-pyrazol-1-yl)-6-((4-fluorophenyl)amino)pyridin-4-yl)methyl)acetamide]: the “SC100 uM” value is recorded as “+ (+ means >1 uM)”.
In the case of `CC(=O)NCc1cc(Nc2ccc(F)cc2)nc(-n2cc(C)c(CF)n2)c1` [Compound 161, N-((2-(3-(fluoromethyl)-4-methyl-1H-pyrazol-1-yl)-6-((4-fluorophenyl)amino)pyridin-4-yl)methyl)acetamide] it was “+++ (+++ means <200 nM)”.
For `FCc1ccn(-c2nc(Nc3ccc(F)cc3)cc(OC3COC3)n2)n1` [Compound 162, 2-(3-(fluoromethyl)-1H-pyrazol-1-yl)-N-(4-fluorophenyl)-6-(oxetan-3-yloxy)pyrimidin-4-amine], the “SC100 uM” value is on record as “++ (++ means 200 nM-1000 nM)”.
For the compound `Cc1cn(-c2nc(Nc3ccc(F)cc3)cc(OC3COC3)n2)nc1CF` [Compound 163, 2-(3-(fluoromethyl)-4-methyl-1H-pyrazol-1-yl)-N-(4-fluorophenyl)-6-(oxetan-3-yloxy)pyrimidin-4-amine], the “SC100 uM” value was “++ (++ means 200 nM-1000 nM)”.
